Results as given in publication PMC10920834, “Synthesis, anticancer activity, and molecular docking of half-sandwich iron(II) cyclopentadienyl complexes with maleimide and phosphine or phosphite ligands” (Scientific Reports, 2024).

Assays:
Type in all cases: cell-based, human
PBM cells = assay: Cell viability resazurin assay, PBM cells; details: for viability of PBM cells relative to control: ± SD
Source text: Peripheral blood mononuclear (PBM) cells were isolated from a leukocyte-buffy coat collected from the blood of healthy, non-smoking donors at the Blood Bank in Lodz, Poland. The study protocol received approval from the Committee for Research on Human Subjects of the University of Lodz (17/KBBN-UŁ/III/2019). The initial step of isolation process involved mixing buffy coats with PBS in a 1:1 ratio. Subsequently, the mixture was centrifuged using a density gradient of Lymphosep (Cytogen, Zgierz, Poland) at 2200 RPM for 20 min, employing the lowest values for acceleration and deceleration. PBM cells were collected and washed three times by centrifugation with 1 × PBS. Following isolation, the cells were suspended in RPMI 1640 medium.
(§1) Firstly, resazurin salt powder was dissolved in sterile 1 × PBS. Cells were then seeded on the 96-well plates in the count of 1 × 10^4 in the case of HL-60 cells and of 5 × 10^4 for PBM cells and of 5 × 10^3 for A549 cells per well. A549 cells were seeded 24 h prior to treatment with the complexes to allow cell adherence to 96-well plate. Iron(II) complexes were added to wells to obtain final concentrations of 0.5, 1, 2.5, 5, 10, 25, 50, 100 and 250 μM. Subsequently, plates were incubated at 37 °C in 5% CO2 for 2 h and 24 h. After that 10 μl of resazurin salt was added to each well and plates again were incubated in 37 °C in 5% CO2 for 2 h. Finally, fluorescence was measured with microplate reader Synergy HT (Bio-Tek Instruments, USA) using an excitation wavelength of 530/25 and an emission wavelength of 590/35 nm. The effects of iron(II) complexes were calculated as the percentage of control fluorescence. IC50 (half maximal inhibitory concentration) values were calculated using a website algorithm (https://www.aatbio.com/tools/ic50-calculator). All assays were performed in octuplicate.

HL-60 cells = assay: Cell viability resazurin assay, HL-60 cells; details: for viability of HL-60 cells relative to control: ± SD
Experimental: (§2) The A549 (human non-small cell lung cancer) cell line was obtained from the American Type Culture Collection (ATCC) and cultured in Dulbecco's Modified Eagle Medium (DMEM) with 10% fetal bovine serum (FBS), 2 mM L-Glutamine, 25 mM HEPES and penicillin/streptomycin solution (100 U/ml and 100 µg/ml, respectively). The HL-60 (human promyelocytic leukemia) cell line was also obtained from the American Type Culture Collection (ATCC) and cultured in Iscove’s Modified Dulbecco's Medium (IMDM) with 15% fetal bovine serum (FBS), 2 mM L-Glutamine, 25 mM HEPES and penicillin/streptomycin solution (100 U/ml and 100 µg/ml, respectively). Both cell lines were cultured in flasks at 37 °C in 5% CO2 and sub-cultured every 2–3 days to maintain exponential growth.
as §1

A549 cells = assay: Cell viability resazurin assay, A549 cells; details: for viability of A549 cells relative to control: ± SD
Experimental: as §2, §1

## O=C1C=CC(=O)[N-]1.[C-]#[O+].[Fe+2].c1cc[cH-]c1.c1ccc(P(c2ccccc2)c2ccccc2)cc1 [2a, CpFe(CO)(PPh3)(η^1-N-maleimidato)]
PBM cells; 2 h incubation, 0.5 µM
  viability of PBM cells relative to control: 98.55 ± 3.27%
PBM cells; 2 h incubation, 1 µM
  viability of PBM cells relative to control: 98.65 ± 4.06%
PBM cells; 2 h incubation, 2.5 µM
  viability of PBM cells relative to control: 98.07 ± 3.18%
PBM cells; 2 h incubation, 5 µM
  viability of PBM cells relative to control: 98.94 ± 2.53%
PBM cells; 2 h incubation, 10 µM
  viability of PBM cells relative to control: 101.13 ± 3.14%
PBM cells; 2 h incubation, 25 µM
  viability of PBM cells relative to control: 102.46 ± 3.1%
PBM cells; 2 h incubation, 50 µM
  viability of PBM cells relative to control: 102.7 ± 2.19%
PBM cells; 2 h incubation, 100 µM
  viability of PBM cells relative to control: 104.68 ± 1.6%
PBM cells; 2 h incubation, 250 µM
  viability of PBM cells relative to control: 104.85 ± 1.37%
PBM cells; 24 h incubation
  IC50: 61.4 µM
PBM cells; 24 h incubation, 0.5 µM
  viability of PBM cells relative to control: 101.47 ± 3.95%
PBM cells; 24 h incubation, 1 µM
  viability of PBM cells relative to control: 98.54 ± 1.78%
PBM cells; 24 h incubation, 2.5 µM
  viability of PBM cells relative to control: 101.97 ± 3.08%
PBM cells; 24 h incubation, 5 µM
  viability of PBM cells relative to control: 102.32 ± 1.76%
PBM cells; 24 h incubation, 10 µM
  viability of PBM cells relative to control: 88.22 ± 1.4%
PBM cells; 24 h incubation, 25 µM
  viability of PBM cells relative to control: 64.32 ± 0.17%
PBM cells; 24 h incubation, 50 µM
  viability of PBM cells relative to control: 55.37 ± 0.71%
PBM cells; 24 h incubation, 100 µM
  viability of PBM cells relative to control: 38.14 ± 0.33%
PBM cells; 24 h incubation, 250 µM
  viability of PBM cells relative to control: 32.79 ± 1.16%
HL-60 cells; 2 h incubation, 0.5 µM
  viability of HL-60 cells relative to control: 104.08 ± 2.11%
HL-60 cells; 2 h incubation, 1 µM
  viability of HL-60 cells relative to control: 103.34 ± 3.15%
HL-60 cells; 2 h incubation, 2.5 µM
  viability of HL-60 cells relative to control: 103.43 ± 2.81%
HL-60 cells; 2 h incubation, 5 µM
  viability of HL-60 cells relative to control: 108.69 ± 1.98%
HL-60 cells; 2 h incubation, 10 µM
  viability of HL-60 cells relative to control: 115.82 ± 2.26%
HL-60 cells; 2 h incubation, 25 µM
  viability of HL-60 cells relative to control: 120.78 ± 3.7%
HL-60 cells; 2 h incubation, 50 µM
  viability of HL-60 cells relative to control: 118.68 ± 5.5%
HL-60 cells; 2 h incubation, 100 µM
  viability of HL-60 cells relative to control: 116.98 ± 3.65%
HL-60 cells; 2 h incubation, 250 µM
  viability of HL-60 cells relative to control: 113.31 ± 3.08%
HL-60 cells; 24 h incubation
  IC50: 14.8 µM
HL-60 cells; 24 h incubation, 0.5 µM
  viability of HL-60 cells relative to control: 103.09 ± 2.54%
HL-60 cells; 24 h incubation, 1 µM
  viability of HL-60 cells relative to control: 104.21 ± 1.11%
HL-60 cells; 24 h incubation, 2.5 µM
  viability of HL-60 cells relative to control: 100.69 ± 4.9%
HL-60 cells; 24 h incubation, 5 µM
  viability of HL-60 cells relative to control: 79.99 ± 2.5%
HL-60 cells; 24 h incubation, 10 µM
  viability of HL-60 cells relative to control: 52.57 ± 0.94%
HL-60 cells; 24 h incubation, 25 µM
  viability of HL-60 cells relative to control: 15.3 ± 1.21%
HL-60 cells; 24 h incubation, 50 µM
  viability of HL-60 cells relative to control: 10.1 ± 0.23%
HL-60 cells; 24 h incubation, 100 µM
  viability of HL-60 cells relative to control: 10.31 ± 0.23%
HL-60 cells; 24 h incubation, 250 µM
  viability of HL-60 cells relative to control: 8.4 ± 0.12%
A549 cells; 2 h incubation, 0.5 µM
  viability of A549 cells relative to control: 84.75 ± 11.62%
A549 cells; 2 h incubation, 1 µM
  viability of A549 cells relative to control: 71.98 ± 10.47%
A549 cells; 2 h incubation, 2.5 µM
  viability of A549 cells relative to control: 67.99 ± 8.45%
A549 cells; 2 h incubation, 5 µM
  viability of A549 cells relative to control: 63.83 ± 8.57%
A549 cells; 2 h incubation, 10 µM
  viability of A549 cells relative to control: 64.49 ± 7.71%
A549 cells; 2 h incubation, 25 µM
  viability of A549 cells relative to control: 64.05 ± 10.66%
A549 cells; 2 h incubation, 50 µM
  viability of A549 cells relative to control: 71.32 ± 8.08%
A549 cells; 2 h incubation, 100 µM
  viability of A549 cells relative to control: 68.25 ± 7.97%
A549 cells; 2 h incubation, 250 µM
  viability of A549 cells relative to control: 57.40 ± 11.79%
A549 cells; 24 h incubation
  IC50: > 250 µM
  cytotoxicity against A549 cells, in words: did not show cytotoxicity
A549 cells; 24 h incubation, 0.5 µM
  viability of A549 cells relative to control: 73.24 ± 14.30%
A549 cells; 24 h incubation, 1 µM
  viability of A549 cells relative to control: 63.60 ± 12.84%
A549 cells; 24 h incubation, 2.5 µM
  viability of A549 cells relative to control: 68.69 ± 13.05%
A549 cells; 24 h incubation, 5 µM
  viability of A549 cells relative to control: 65.32 ± 9.49%
A549 cells; 24 h incubation, 10 µM
  viability of A549 cells relative to control: 114.65 ± 23.41%
A549 cells; 24 h incubation, 25 µM
  viability of A549 cells relative to control: 117.99 ± 19.59%
A549 cells; 24 h incubation, 50 µM
  viability of A549 cells relative to control: 105.46 ± 17.32%
A549 cells; 24 h incubation, 100 µM
  viability of A549 cells relative to control: 120.77 ± 9.93%
A549 cells; 24 h incubation, 250 µM
  viability of A549 cells relative to control: 90.11 ± 9.87%
A549 cells; 24 h incubation, concentration not given
  A549 cell viability, increase with increasing concentrations to: 120%
